In patent publication US20240384268A1, “Oligonucleotides” (Hudson Institute of Medical Research, priority 2021, published 2024):
In the oligonucleotide strings, read from the 5' end, every base follows the letter of its sugar. An asterisk marks phosphorothioate; unmarked linkages are phosphodiester. Other units and linkages are bracketed, terminal groups are in braces. A string of capitals states the bases alone. m = 2'-O-methyl

How the values were obtained:
TLR8 [1] = target: T1, TLR8 (Homo sapiens, UniProt Q9NR97); assay: HEK-TLR8 NF-κB-luciferase reporter, R848 or Motolimod stimulation (potentiation or inhibition); type: cell-based; set-up: expressed in transfected cells; host or cells: 293XLhTLR8 (HEK293); details: HEK-TLR8; for TLR8 HEK 5 uM: 3mer 2'OMe ASO at 5 uM, value relative to Ligand only = 1.000, NT = 0.000; for effect of 3-mer 2′OMe PS oligos on TLR8 sensing in HEK-TLR8 (in words): 5 μM naked 3-mer, Motolimod
T1 sequence (Q9NR97 27-1041): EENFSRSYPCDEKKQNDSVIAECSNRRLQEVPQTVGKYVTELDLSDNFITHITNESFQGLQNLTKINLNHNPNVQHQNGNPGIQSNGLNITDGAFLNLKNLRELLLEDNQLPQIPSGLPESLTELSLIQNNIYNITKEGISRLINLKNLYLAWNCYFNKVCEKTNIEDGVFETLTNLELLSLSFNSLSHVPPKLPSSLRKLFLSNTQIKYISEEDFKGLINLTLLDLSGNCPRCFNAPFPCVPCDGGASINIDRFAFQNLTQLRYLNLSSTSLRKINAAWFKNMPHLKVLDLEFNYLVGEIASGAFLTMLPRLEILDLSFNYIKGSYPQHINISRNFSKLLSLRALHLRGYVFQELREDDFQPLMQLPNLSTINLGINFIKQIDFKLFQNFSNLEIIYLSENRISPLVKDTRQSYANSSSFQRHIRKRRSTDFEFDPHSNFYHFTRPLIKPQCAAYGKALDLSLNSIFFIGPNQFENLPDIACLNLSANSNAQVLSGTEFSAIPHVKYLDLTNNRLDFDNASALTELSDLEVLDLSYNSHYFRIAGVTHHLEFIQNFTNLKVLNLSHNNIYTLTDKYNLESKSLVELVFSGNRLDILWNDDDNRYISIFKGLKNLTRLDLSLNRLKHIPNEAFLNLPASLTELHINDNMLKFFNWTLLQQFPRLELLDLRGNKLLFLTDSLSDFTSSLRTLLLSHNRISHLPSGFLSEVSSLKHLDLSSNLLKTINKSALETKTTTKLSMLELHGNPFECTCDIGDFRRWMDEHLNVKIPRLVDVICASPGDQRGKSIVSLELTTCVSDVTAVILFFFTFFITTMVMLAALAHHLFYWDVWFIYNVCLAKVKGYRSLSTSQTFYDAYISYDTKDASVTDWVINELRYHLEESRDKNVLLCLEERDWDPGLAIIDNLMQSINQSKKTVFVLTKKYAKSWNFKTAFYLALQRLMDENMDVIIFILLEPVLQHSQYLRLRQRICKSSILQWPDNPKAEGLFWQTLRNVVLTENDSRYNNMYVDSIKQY

TLR8 [2] = target: T1, TLR8; assay: R848-driven IP-10 production in THP-1 cells (TLR8); type: cell-based; set-up: expressed in transfected cells; details: 3mer 2'OMe ASO at 1 uM; raw values, Ligand only = 355.752, NT = 134.831;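 further: IP-10 by ELISA in supernatant after 7 h R848 stimulation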

Substance	TLR8 HEK 5 uM (TLR8 [1])	effect of 3-mer 2′OMe PS oligos on TLR8 sensing in HEK-TLR8 (in words) (TLR8 [1])	TLR8 1 uM (TLR8 [2])
mGmUmA (GUA; all 2'-O-methyl, backbone not given here; further chemistry not fully specified) [shortMut1-3b]	0.792	robustly inhibitory	133.537
mGmUmC (mG*mU*mC) [GUC, 3-mer 2′OMe PS oligo]	0.763	robustly inhibitory	131.948
mGmUmG (mG*mU*mG) [GUG, 3-mer 2′OMe PS oligo]	0.882	robustly inhibitory	158.982
mGmUmU (mG*mU*mU) [GUU, 3-mer 2′OMe PS oligo]	0.668	robustly inhibitory	166.278
mUmCmA (mU*mC*mA) [UCA, 3-mer 2′OMe PS oligo]	1.115		1049.345
mUmCmG (antisense mU*mC*mG) [660-3b]	2.839	potentiated the sensing of R848	746.272
mUmGmA (mU*mG*mA) [UGA, 3-mer 2′OMe PS oligo]	1.331		267.234
mUmGmG (mU*mG*mG) [UGG, 3-mer 2′OMe PS oligo]	1.860	potentiated the sensing of R848	527.575
